Experimental data published in patent publication US10898481B2 (priority 2018, dated 2021).
Where two headings read alike, the source gives them in different places.

Tests used:
hA2b/CHO = hA2b/CHO (Homo sapiens (Human), UniProt P29275); experiment: cAMP inhibition assay in hA2b/CHO cells, 10 μM adenosine; type: cell-based; conditions: read-out: cAMP & FLIPR IC50 (nM) hA2b;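 note: cells exposed to compound 30 min at 37 °C, then stimulated with adenosine a further 30 min, cAMP read after 60 min at room temperature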
Chain of hA2b/CHO (P29275 whole entry): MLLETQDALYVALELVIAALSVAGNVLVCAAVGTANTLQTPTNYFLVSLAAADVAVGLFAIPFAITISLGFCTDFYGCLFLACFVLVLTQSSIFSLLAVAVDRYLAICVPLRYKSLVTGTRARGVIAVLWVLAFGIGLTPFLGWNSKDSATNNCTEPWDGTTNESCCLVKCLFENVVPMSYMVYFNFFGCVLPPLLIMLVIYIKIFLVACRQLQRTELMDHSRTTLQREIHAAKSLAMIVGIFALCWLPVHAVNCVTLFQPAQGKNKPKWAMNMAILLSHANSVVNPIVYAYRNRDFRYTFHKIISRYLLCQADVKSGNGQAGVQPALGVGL

[1] = target: hADORA1/CHO (hA1 expressing) cells (Homo sapiens (Human), UniProt P30542); experiment: cell-based; conditions: 10 μM adenosine
Chain of hADORA1/CHO (hA1 expressing) cells (P30542 whole entry): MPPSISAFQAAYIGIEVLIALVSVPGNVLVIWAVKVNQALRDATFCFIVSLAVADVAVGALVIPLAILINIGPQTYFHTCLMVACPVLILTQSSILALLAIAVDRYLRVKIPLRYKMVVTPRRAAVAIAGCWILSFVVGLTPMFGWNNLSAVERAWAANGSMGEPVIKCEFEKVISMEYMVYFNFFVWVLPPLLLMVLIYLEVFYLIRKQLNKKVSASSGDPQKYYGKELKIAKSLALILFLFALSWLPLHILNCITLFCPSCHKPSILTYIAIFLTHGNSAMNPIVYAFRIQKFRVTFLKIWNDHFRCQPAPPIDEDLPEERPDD

mA2a/CHO = mA2a/CHO (Mus musculus (Mouse), UniProt Q60613); experiment: cAMP inhibition assay in mA2a/CHO cells, 10 μM adenosine; type: cell-based; conditions: read-out: cAMP & FLIPR IC50 (nM) mA2a;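 note: compounds preincubated 30 min at 37 °C before the adenosine challenge, then 30 min further stimulation, readout after 60 min detection reagent incubation at room temperature in 384-well plates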
Chain of mA2a/CHO (Q60613 whole entry): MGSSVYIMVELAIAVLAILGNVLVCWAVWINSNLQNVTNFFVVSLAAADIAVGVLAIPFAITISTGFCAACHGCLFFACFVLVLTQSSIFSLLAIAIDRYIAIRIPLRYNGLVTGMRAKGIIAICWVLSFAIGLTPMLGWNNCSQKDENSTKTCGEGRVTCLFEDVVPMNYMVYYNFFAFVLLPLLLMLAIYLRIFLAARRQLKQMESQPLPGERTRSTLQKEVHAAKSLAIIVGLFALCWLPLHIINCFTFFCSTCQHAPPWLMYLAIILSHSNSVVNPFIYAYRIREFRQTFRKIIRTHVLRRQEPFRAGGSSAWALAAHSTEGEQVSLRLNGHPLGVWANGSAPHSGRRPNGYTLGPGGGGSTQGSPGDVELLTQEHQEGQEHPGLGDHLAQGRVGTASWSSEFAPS

hA3/CHO = hA3/CHO (Homo sapiens (Human), UniProt P0DMS8); experiment: cell-based
Chain of hA3/CHO (P0DMS8 whole entry): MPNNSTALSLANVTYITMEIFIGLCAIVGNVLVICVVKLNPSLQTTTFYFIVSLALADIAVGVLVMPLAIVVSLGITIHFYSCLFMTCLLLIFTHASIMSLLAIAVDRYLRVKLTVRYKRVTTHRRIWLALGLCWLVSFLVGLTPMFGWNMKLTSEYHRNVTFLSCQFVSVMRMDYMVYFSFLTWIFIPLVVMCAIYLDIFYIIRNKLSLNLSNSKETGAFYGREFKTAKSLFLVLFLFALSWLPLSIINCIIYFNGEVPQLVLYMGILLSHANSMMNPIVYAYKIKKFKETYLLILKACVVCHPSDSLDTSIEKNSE
Method: hA2a/CHO, hA2b/CHO, hA3/CHO and mA2a/CHO (Genscript) were plated at 5×10^3 cells/well into 384-well polystyrene plates at the day of experiment. Compounds were pre-incubated with cells for 30 min at 37° C., 5% CO2. Then 10 μM adenosine was added to the cells and incubated for 30 min at 37° C., 5% CO2. Detection reagent (CISBIO) was added and the plates were incubated for 60 min at room temperature. The signal was captured by Envision.

hA2a/CHO = hA2a/CHO (Homo sapiens (Human), UniProt P29274); experiment: cAMP inhibition assay in hA2a/CHO cells, 10 μM adenosine; type: cell-based; conditions: read-out: cAMP & FLIPR IC50 (nM) hA2a;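 note: compounds added to cells 30 min ahead of adenosine, then a further 30 min at 37 °C with adenosine before cAMP detection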
Chain of hA2a/CHO (P29274 whole entry): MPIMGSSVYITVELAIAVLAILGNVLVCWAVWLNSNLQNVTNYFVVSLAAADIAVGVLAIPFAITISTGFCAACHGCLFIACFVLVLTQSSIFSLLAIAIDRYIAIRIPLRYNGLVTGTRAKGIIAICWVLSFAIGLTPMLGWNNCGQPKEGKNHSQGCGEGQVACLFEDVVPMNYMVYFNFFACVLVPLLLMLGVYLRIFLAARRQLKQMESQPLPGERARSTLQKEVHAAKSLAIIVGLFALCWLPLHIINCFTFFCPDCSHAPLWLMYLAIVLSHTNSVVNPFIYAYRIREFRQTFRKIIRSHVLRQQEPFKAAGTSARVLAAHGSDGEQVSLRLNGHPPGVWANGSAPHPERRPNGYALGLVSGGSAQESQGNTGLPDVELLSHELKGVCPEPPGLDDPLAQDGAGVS

hA2a = hA2a (Homo sapiens (Human), UniProt P29274); experiment: Radioligand binding to hA2a membrane with [3H]-CGS21680; conditions: read-out: Binding Affinity (IC50 nM) hA2a
Chain of hA2a (P29274 whole entry): as above
Source text: (§1) The empty boxes in the tables below indicate data not collected yet.

hA1 = hA1 (Homo sapiens (Human), UniProt P30542); conditions: hA1 membrane, [3H]-DPCPX; read-out: Binding Affinity (IC50 nM) hA1
Chain of hA1 (P30542 whole entry): as the sequence (P30542 whole entry) above
Source text: as §1

[2] = FLIPR inhibition, read-out: cAMP & FLIPR IC50 (nM) hA1
[3] = cAMP & FLIPR IC50 (nM) hA1, FLIPR inhibition

| Structure (SMILES) | IC50 (hA2b/CHO) [nM] | IC50 [1, 2] [nM] | IC50 (mA2a/CHO) [nM] | IC50 (hA3/CHO) [nM] | IC50 (hA2a/CHO) [nM] | IC50 (hA2a) [nM] | IC50 (hA1) [nM] | IC50 [1, 3] [nM] |
| --- | --- | --- | --- | --- | --- | --- | --- | --- |
| Cc1cc(-c2nc(C(=O)NCc3cccc(N(C)C)n3)c(N)nc2-c2ccc(F)cc2)ccn1 [Example 12, 3-amino-N-((6-(dimethylamino)pyridin-2-yl)methyl)-5-(4-fluorophenyl)-6-(2-methylpyridin-4-yl)pyrazine-2-carboxamide] | 9030 | 414 | 678 | 6940 | 36 | – | – | – |
| CN(C)c1cccc(CNC(=O)c2nc(-c3ccc(=O)n(C)c3)c(-c3ccc(F)cc3)nc2N)n1 [Example 13, 3-amino-N-[[6-(dimethylamino)pyridin-2-yl]methyl]-5-(4-fluorophenyl)-6-(1-methyl-6-oxo-1,6-dihydropyridin-3-yl)pyrazine-2-carboxamide] | 4640 | 72 | 51 | ≥ 10000 | 6.1 | – | – | – |
| Cn1cc(-c2nc(C(=O)NCc3ncccc3F)c(N)nc2-c2ncco2)ccc1=O [Example 14, 3-amino-N-((3-fluoropyridin-2-yl)methyl)-6-(1-methyl-6-oxo-1,6-dihydropyridin-3-yl)-5-(oxazol-2-yl)pyrazine-2-carboxamide] | 768 | 10000 | 213 | ≥ 10000 | 98 | 3.1 | – | – |
| CC(NC(=O)c1nc(-c2ccc(=O)n(C)c2)c(-c2ncco2)nc1N)c1c(F)cccc1F (stereo not drawn) [Example 20, 3-amino-N-(1-(2,6-difluorophenyl)ethyl)-6-(1-methyl-6-oxo-1,6-dihydropyridin-3-yl)-5-(oxazol-2-yl) pyrazine-2-carboxamide] | 3600 | 6610 | 170 | ≥ 10000 | 41 | – | – | – |
| Cc1scnc1CNC(=O)c1nc(-c2ccc(=O)n(C)c2)c(-c2ncco2)nc1N [Example 22, 3-amino-6-(1-methyl-6-oxo-1,6-dihydropyridin-3-yl)-N-((5-methylthiazol-4-yl)methyl)-5-(oxazol-2-yl)pyrazine-2-carboxamide] | 2550 | 3380 | 132 | ≥ 10000 | 60 | 3.5 | – | – |
| Cn1cc(-c2nc(C(=O)NCc3cccc(N)n3)c(N)nc2-c2ncco2)ccc1=O [Example 24, 3-amino-N-[(6-aminopyridin-2-yl)methyl]-6-(1-methyl-6-oxo-1,6-dihydropyridin-3-yl)-5-(1,3-oxazol-2-yl)pyrazine-2-carboxamide] | 1460 | 9360 | 641 | ≥ 10000 | 199 | 11 | – | – |
| CN(C)c1ccnc(CNC(=O)c2nc(-c3ccc(=O)n(C)c3)c(-c3ncco3)nc2N)n1 [Example 25, 3-amino-N-((4-(dimethylamino)pyrimidin-2-yl)methyl)-6-(1-methyl-6-oxo-1,6-dihydropyridin-3-yl)-5-(oxazol-2-yl)pyrazine-2-carboxamide] | ≥ 10000 | 3300 | 242 | ≥ 10000 | 125 | – | – | – |
| Cn1cc(-c2nc(C(=O)NCc3cccc(N4CCC4)n3)c(N)nc2-c2ncco2)ccc1=O [Example 26, 3-amino-N-[[6-(azetidin-1-yl)pyridin-2-yl]methyl]-6-(1-methyl-6-oxo-1,6-dihydropyridin-3-yl)-5-(1,3-oxazol-2-yl)pyrazine-2-carboxamide] | ≥ 10000 | 725 | 309 | ≥ 10000 | 108 | – | – | – |
| CN(C)c1ccc(F)c(CNC(=O)c2nc(-c3ccc(=O)n(C)c3)c(-c3ncco3)nc2N)c1 [Example 27, 3-amino-N-(5-(dimethylamino)-2-fluorobenzyl)-6-(1-methyl-6-oxo-1,6-dihydropyridin-3-yl)-5-(oxazol-2-yl)pyrazine-2-carboxamide] | ≥ 10000 | 1770 | 177 | ≥ 10000 | 60 | – | – | – |
| Cn1cc(-c2nc(C(=O)NCc3cccc(N4CCCC4)n3)c(N)nc2-c2ncco2)ccc1=O [Example 28, 3-amino-6-(1-methyl-6-oxo-1,6-dihydropyridin-3-yl)-5-(1,3-oxazol-2-yl)-N-[[6-(pyrrolidin-1-yl)pyridin-2-yl]methyl]pyrazine-2-carboxamide] | ≥ 10000 | 4900 | 160 | ≥ 10000 | 129 | – | – | – |
| Cn1cc(-c2nc(C(=O)NCc3c(F)cccc3F)c(N)nc2-c2ccc(F)cc2)ccc1=O [Example 29, 3-amino-N-[(2,6-difluorophenyl)methyl]-5-(4-fluorophenyl)-6-(1-methyl-6-oxo-1,6-dihydropyridin-3-yl)pyrazine-2-carboxamide] | 103 | 66 | 60 | ≥ 10000 | 6.8 | 2.3 | – | – |
| Cn1cc(-c2nc(C(=O)NCc3ncccc3OC(F)(F)F)c(N)nc2-c2ncco2)ccc1=O [Example 30, 3-amino-6-(1-methyl-6-oxo-1,6-dihydropyridin-3-yl)-5-(1,3-oxazol-2-yl)-N-[[3-(trifluoromethoxy)pyridin-2-yl]methyl]pyrazine-2-carboxamide] | 603 | 214 | 47 | ≥ 10000 | 45 | – | – | – |
| Nc1nc(-c2ncco2)c(-c2ccc(=O)n(C(F)F)c2)nc1C(=O)NCc1ncccc1F [Example 31, 3-amino-6-[1-(difluoromethyl)-6-oxo-1,6-dihydropyridin-3-yl]-N-[(3-fluoropyridin-2-yl)methyl]-5-(1,3-oxazol-2-yl)pyrazine-2-carboxamide] | 164 | 35 | 75 | ≥ 10000 | 34 | – | – | – |
| Nc1nc(-c2ncco2)c(-c2ccc3nccn3c2)nc1C(=O)NCc1c(F)cccc1F [Example 32, 3-amino-N-[(2,6-difluorophenyl)methyl]-6-[imidazo[1,2-a]pyridin-6-yl]-5-(1,3-oxazol-2-yl)pyrazine-2-carboxamide] | 3 | 494 | 2 | ≥ 10000 | 0.2 | – | – | – |
| CN(C)c1cccc(CNC(=O)c2nc(-c3ccc(=O)n(C)c3)c(-c3ncco3)nc2N)c1F [Example 33, 3-amino-N-(3-(dimethylamino)-2-fluorobenzyl)-6-(1-methyl-6-oxo-1,6-dihydropyridin-3-yl)-5-(oxazol-2-yl)pyrazine-2-carboxamide] | ≥ 10000 | 3030 | 123 | ≥ 10000 | 56 | – | – | – |
| Nc1nc(-c2ncco2)c(-c2ccc3nncn3c2)nc1C(=O)NCc1c(F)cccc1F [Example 34, 6-([1,2,4]triazolo[4,3-a]pyridin-6-yl)-3-amino-N-(2,6-difluorobenzyl)-5-(oxazol-2-yl)pyrazine-2-carboxamide] | 330 | 10000 | 192 | ≥ 10000 | 63 | 3.7 | – | – |
| Cn1cc(-c2nc(C(=O)NCc3c(F)cccc3F)c(N)nc2-n2nccn2)ccc1=O [Example 35, 3-amino-N-(2,6-difluorobenzyl)-6-(1-methyl-6-oxo-1,6-dihydropyridin-3-yl)-5-(2H-1,2,3-triazol-2-yl)pyrazine-2-carboxamide] | 203 | 112 | 43 | ≥ 10000 | 15 | 3.2 | – | – |
| Nc1nc(-c2ncco2)c(-c2ccc3[nH]cnc3c2)nc1C(=O)NCc1ncccc1F [Example 47, 3-amino-6-(1H-1,3-benzodiazol-5-yl)-N-[(3-fluoropyridin-2-yl)methyl]-5-(1,3-oxazol-2-yl)pyrazine-2-carboxamide] | – | – | – | – | – | – | 696 | 10000 |
| Cn1cc(-c2nc(C(=O)NCc3nc(N)ccc3F)c(N)nc2-c2ncco2)ccc1=O [Example 49, 3-amino-N-((6-amino-3-fluoropyridin-2-yl)methyl)-6-(1-methyl-6-oxo-1,6-dihydropyridin-3-yl)-5-(oxazol-2-yl)pyrazine-2-carboxamide] | – | – | – | – | – | – | 117 | 1710 |
| COc1ccccc1CNC(=O)c1nc(-c2cc(C)nc(C)c2)c(-c2ccc(C)o2)nc1N [Example 61, 3-amino-6-(2,6-dimethylpyridin-4-yl)-N-(2-methoxybenzyl)-5-(5-methylfuran-2-yl)pyrazine-2-carboxamide] | ≥ 10000 | – | 6 | – | 0.6 | 7.9 | 52 | – |
| Cc1cnc2ccc(-c3nc(C(=O)NCc4ncccc4F)c(N)nc3-c3ncco3)cn12 [Example 101, 3-amino-N-((3-fluoropyridin-2-yl)methyl)-6-(3-methylimidazo[1,2-a]pyridin-6-yl)-5-(oxazol-2-yl)pyrazine-2-carboxamide] | – | 45 | – | – | – | – | 5.6 | – |
